System: gray mold fungus (Botrytis cinerea)
Test: cucumber leaf disk test against gray mold fungus, preventive value
Assay type: in vivo
Details: single compound, 15° C., four days
Procedure: True leaf of cucumber was punched out with cork borer to 13 mm in diameter to prepare a leaf disk. In 24 well microwell plate that was dispensed with 1 ml 0:8% water agar, the leaf disk was placed such that the upper side of the leaf was in an upward direction. Thereto was added 20 micro liter a testing solution prepared by mixing a dimethyl sulfoxide solution of the present amide compound and a dimethyl sulfoxide solution of benomyl or carbendazim to a predetermined concentration to treat the leaf disk.
After confirming that the testing medical solution was dried, conidium of gray mold fungus (Botrytis cinerea) was suspended into potato dextrose broth (DIFCO) in a density of about 10^5 conidia/mL and was then subjected to a spray inoculation. After leaving to stand the leaf disk in a growth chamber set up at 15° C. for four days, an onset area on each leaf was measured and then calculated an onset area rate (hereinafter, referred to as an onset area rate belonging to treated group).
The same operation was carried out with 20 micro liter water instead of 20 micro liter the testing medicine solution to calculate an onset area rate (hereinafter, referred to an onset area rate belonging to non-treated group).
A preventive value was calculated from the above onset area rate belonging to treated group and the onset area rate belonging to non-treated group by the following equation:
Preventive value(%)=100×(A−B)/A
A: an onset area rate belonging to non-treated group
B: an onset area rate belonging to treated group
onset area rate=(onset area of the leaf disk)/(the total area of the leaf disk)
For comparison, the same operations as described in Test Examples 1 to 4 were carried out except that the testing medicine solution was substituted with predetermined concentration of a dimethyl sulfoxide solution of benomyl or carbendazim, so as to calculate a preventive value.

[1] = treatment concentration 0.5 ppm
[2] = treatment concentration 5.0 ppm

Row | Structure (SMILES) | preventive value (%) [1] [%] | preventive value (%) [2] [%] | preventive value (%) (treatment concentration 1.0 ppm) | preventive value (%) (treatment concentration 2.5 ppm)
1 | COC(=O)Nc1nc2ccccc2[nH]1 [carbendazim] | 45 | 55.5 |  | 
2 | CNC(=O)C(OC)c1ccccc1COc1cc(C)ccc1C (stereo not drawn) [the present amide compound] |  |  | 46 | 55.5
3 | CCCCNC(=O)n1c(NC(=O)OC)nc2ccccc21 [benomyl] | 47.5 | 56.5 |  | 
